Laboratory results from BindingDB's records for doi:10.1016/j.bmcl.2005.10.040 (Huazhong University of Science and Technology, 2005).

Columns and labels:
[1] = target: T1, Succinate-semialdehyde dehydrogenase, mitochondrial (Homo sapiens, UniProt P51649); test: Inhibitory activity against SSADH
T1 sequence (P51649 whole entry): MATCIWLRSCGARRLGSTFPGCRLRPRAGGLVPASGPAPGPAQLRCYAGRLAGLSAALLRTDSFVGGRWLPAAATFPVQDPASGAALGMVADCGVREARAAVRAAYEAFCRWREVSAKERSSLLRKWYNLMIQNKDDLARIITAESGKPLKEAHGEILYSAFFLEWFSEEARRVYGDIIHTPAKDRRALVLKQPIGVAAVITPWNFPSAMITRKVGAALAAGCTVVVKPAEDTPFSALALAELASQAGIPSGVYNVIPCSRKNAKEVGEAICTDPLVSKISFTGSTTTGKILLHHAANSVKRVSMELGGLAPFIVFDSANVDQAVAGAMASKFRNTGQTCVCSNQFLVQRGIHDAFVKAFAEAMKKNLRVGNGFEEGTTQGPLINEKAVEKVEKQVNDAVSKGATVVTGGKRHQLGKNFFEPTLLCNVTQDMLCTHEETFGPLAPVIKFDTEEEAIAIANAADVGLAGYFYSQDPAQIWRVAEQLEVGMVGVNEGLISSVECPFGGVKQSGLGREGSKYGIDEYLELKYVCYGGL

[2] = target: 4-aminobutyrate aminotransferase, mitochondrial (Homo sapiens, UniProt P80404); test: Inhibitory activity against GABAT
Sequence of 4-aminobutyrate aminotransferase, mitochondrial (P80404 whole entry): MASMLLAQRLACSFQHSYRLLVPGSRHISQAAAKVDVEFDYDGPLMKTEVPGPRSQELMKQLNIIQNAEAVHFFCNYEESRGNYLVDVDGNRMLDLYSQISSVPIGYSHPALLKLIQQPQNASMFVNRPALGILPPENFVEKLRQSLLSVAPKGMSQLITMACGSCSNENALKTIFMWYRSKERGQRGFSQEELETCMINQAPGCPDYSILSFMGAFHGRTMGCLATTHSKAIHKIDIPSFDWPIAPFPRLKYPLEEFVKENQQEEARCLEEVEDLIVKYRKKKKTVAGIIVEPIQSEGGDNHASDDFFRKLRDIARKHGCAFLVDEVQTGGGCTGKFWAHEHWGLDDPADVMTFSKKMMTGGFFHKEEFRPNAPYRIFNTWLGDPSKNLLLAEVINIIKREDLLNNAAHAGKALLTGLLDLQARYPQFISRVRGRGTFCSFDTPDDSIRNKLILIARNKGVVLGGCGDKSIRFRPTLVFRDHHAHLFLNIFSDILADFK

| IC50 [1] | IC50 [2] | SMILES |
| --- | --- | --- |
| > 1000 µM | > 1000 µM | O=NCc1ccc(O)cc1 [4-hydroxybenzaldehyde oxime] |
| > 1000 µM | > 1000 µM | COc1cc(CN=O)ccc1O [4-hydroxy-3-methoxybenzaldehyde oxime] |
